Among the data in PubChem BioAssay (NCI) are TGI and GI50 values, retold here.

“And” between values parts separate entries of the source, which are not always exact repeats. Equal values may be shown once.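 Values below derive from 48-hour exposures of cells grown in 96-well plates, with endpoints linearly interpolated between the two concentrations bracketing the appropriate inhibition level. The concentration for 50% growth inhibition is given as GI50. Definition used: TGI = concentration required for complete inhibition of growth.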

Common to all, as to experiment: NCI tumour cell line growth inhibition, 48 h
The subject of assay [1] is SNB-78 CNS.
Assay [2] relates to DLD-1 colon.
The subject of assay [3] is DMS 273 small cell lung.
Assay [4] deals with KM20L2 colon.
The subject of assay [5] is LXFL 529 NSCLC.
For assay [6], the system named is RXF-631 renal.
The test system of assay [7] is MCF7 breast.
Assay [8] has as its system MDA-N.
In assay [9] the test system is PC-3 prostate.

On to `CCn1c2c(c3ccccc31)[C@@H](c1ccc(Cl)cc1)CC1C(=O)N(c3ccccc3)C(=O)C21` (some centres undefined), for which the TGI in assay [1], in [2], in assay [3], in [4] and in assay [5] was over 100 µM each time.

With `Cc1cccc(C)c1N1C(=O)C(=O)C(c2nc3ccccc3s2)/C(=N/NC(=O)c2ccccc2O)C1=O` (centres undefined), the TGI in [6] was over 100 µM; in assay [1], over 100 µM; in assay [2], over 100 µM; in assay [3], 22.5 µM; in assay [4] it was over 100 µM; in assay [5], over 100 µM.

Regarding `CCC1(OC(=O)CN)C(=O)OCc2c1cc1n(c2=O)Cc2cc3ccccc3nc2-1` (centres undefined), the GI50 in [1] was 0.53 µM; in assay [7], 0.0251 µM; in [8], 0.122 µM and 0.36 µM; in assay [4], 0.056 µM; in assay [9], 0.172 µM; in assay [5], 0.135 µM. Further, the TGI in [1] is over 100 µM; in assay [2], over 100 µM; in assay [9], over 100 µM; in [5], 6.06 µM.

Turning to `CCOC(=O)C12C(C(=O)OC)=C(C)N(NC(=O)Nc3ccccc3)C1(N)N(NC(=O)Nc1ccccc1)C(C)=C2C(=O)OC` (centres undefined), the TGI in [1] was over 100 µM; in assay [2], over 100 µM; in assay [3] it was over 72.2 µM; in assay [4] it was 42.8 µM; in assay [5] it was over 79.5 µM.

For `Cc1cc(C)c(C(=O)O)c(SSc2cc(C)cc(C)c2C(=O)O)c1`, the TGI in assay [6], in [1], in [2], in [3], in [4] and in assay [5] was over 100 µM in each case.

On to `COC(=O)C(CC(=O)Nc1ccc(Cl)c(Cl)c1)C(=O)C(=O)Nc1ccc(Cl)c(Cl)c1` (centres undefined), for which the TGI in [6], in assay [1], in [3], in [4] and in assay [5] was over 100 µM in each case.

As to `C1CN(P2(N3CC3)=NP(N3CC3)(N3CC3)=NP(N3CC3)(N3CC3)=N2)CCO1` (centres undefined), the TGI in [1], in [2], in assay [3], in assay [4] and in [5] was over 100 µM each time.

Consider `CCOc1ccc(NCC2CC/C(=C\c3ccccc3OC)C2=O)cc1` (centres undefined), for which the TGI in assay [6] is 42.5 µM; in [1], 44.3 µM; in assay [2], 13.6 µM; in [3], 6.76 µM; in assay [4], 28.4 µM; in assay [5] it was 6.5 µM.

For the compound `CC(C)c1cccc(O)c(=O)c1`, the TGI was over 100 µM in [6]; over 100 µM in assay [1]; over 100 µM in [2]; over 48.4 µM in [3]; 5.08 µg/mL in assay [7]; over 100 µM in assay [4]. The TGI is over 75 µg/mL in assay [9] and over 100 µM in assay [5]. The GI50 in assay [7] is 1.46 µg/mL; in [9], 2.6 µg/mL.

As to `CC1(C)OC(=O)C(C#N)=C1C[n+]1ccccc1`, the TGI in assay [7], in assay [8] and in assay [9] was over 10 µM throughout.

Regarding `COC(=O)/C(C#N)=C(\N)C(Cl)(Cl)Cl`, the TGI was 6.02 µM in assay [6]; 31.3 µM in [1]; 3.52 µM in [2]; 12.4 µM in assay [3]; over 100 µM in [4]; 9.73 µM in [5].

For the compound `COc1cc2c(cc1OC)C1Cc3ccc(OC)c(OC)c3C[N+]1([O-])CC2` (centres undefined), the TGI in assay [1], in assay [2], in assay [4] and in assay [5] was over 100 µM throughout.

On to `CCOC(=O)C1=C(C)N(NC(N)=O)C2(N)N(NC(N)=O)C(C)=C(C(=O)OCC)C12C(=O)OCC` (centres undefined), for which the TGI in assay [2], in assay [3], in assay [4] and in assay [5] was over 100 µM throughout.

With `COc1ccc(C(=O)CC2=Nc3nnc(CCCCCCCc4nnc5n4C(=O)C(CC(=O)c4ccc(OC)cc4)=N5)n3C2=O)cc1`, the TGI in [6], in assay [2], in assay [4] and in assay [5] was over 100 µM each time.

Regarding `CC1CC(C)C2OC2(C)C[C@H](C)C(=O)NC(C)C(=O)N(C)[C@H](Cc2c(Br)[nH]c3ccccc23)C(=O)N[C@@H](c2ccc(O)cc2)CC(=O)O1` (some centres undefined), the TGI is over 100 µM in assay [6]; 0.763 µM in assay [1]; over 100 µM in assay [2]; 83.1 µM in assay [3]; over 50.1 µM in [4]; 13.3 µM in assay [5].

As to `CCCN(CCC)C(=O)c1nc(N)nc(-c2ccc(OC)cc2)c1-c1ccc(OC)cc1`, the TGI in assay [6], in assay [1], in assay [2], in [3], in [4] and in assay [5] was over 100 µM each time.

Turning to `Cc1nc(N)nc(N)c1CCCc1ccccc1`, the TGI in [1], in assay [2], in assay [4] and in [5] was over 100 µM throughout.

As for `CCCCCCCC/C=C1\CCC(CN2CCOCC2)C1=O` (centres undefined), the TGI stood at 64.8 µM in assay [6]; 31.8 µM in [1]; 8.03 µM in assay [2]; 6.18 µM in [7]; 22.4 µM in assay [8]; 33 µM in assay [4]. The TGI turned out to be 23.7 µM in assay [9] and 9.2 µM in assay [5].

For `C/C(CC(=O)Nc1ccccc1C)=N/NS(=O)(=O)c1ccc(C)cc1`, the TGI in assay [6], in assay [1], in assay [2], in [3], in assay [4] and in [5] was over 100 µM throughout.
